Values after ≈ are worked out from the molar mass of the structure shown.
Assays:
[1] = cited from earlier work
[2] = Bulk density, tapped density and Carr index of primidone and primidone granules; format: physicochemical; conditions: for Carr Index: percent compressibility from tapped and bulk density
Source text: “Carr index” as used herein is defined as the percent compressibility, that is a percentage ratio of the difference between tapped bulk density and initial bulk density to tapped bulk density.

Compound | solubility in water [1] [µg/mL] | Bulk Density, (Db) [2] [g/mL] | Tapped density (Dt) [2] [g/mL] | Carr Index [2] [%]
CCC1(c2ccccc2)C(=O)NCNC1=O [Primidone, 5-ethyldihydro-5-phenyl-4,6 (1H, 5H pyrimidinedione)] | 600 (≈ 2750 µM) |  |  | 
CCC1(c2ccccc2)C(=O)NCNC1=O [Primidone Particle size D90 307 μm] |  | 0.850 | 0.905 | 6.1
CCC1(c2ccccc2)C(=O)NCNC1=O [Primidone Particle size D90 7.1 μm] |  | 0.221 | 0.307 | 28
